The supplement of paper PMC11208160

Experiment: recombinant UMI read abundance after kanamycin selection (control-corrected) (log10(CPM+1)); higher = more efficient recombination; extreme values may be limits of the assay; sequences stand for … in AGTGCAGAGAAAATCGGCCAGTTTTCTCTGCCTGCAGTCCGCATGCCGTGGGACCCCTTGGGTTCTAACCTGTTGCCTAGATTTATGCAGCGGACTGCCTTTCTCCCAAAGTGATAAACCGG…AGGTTGGTTTCACT; site = the 11-nt donor
Outline: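 Each donor and donor-binding-loop pair was tracked by a 12-nt UMI on a plasmid carrying a promoterless kanamycin gene. With a second plasmid supplying a fixed target and T7-inducible IS621 bridge recombinase, the pool was plated in Escherichia coli on IPTG (0.07 mM) plus kanamycin or unselected. Sequencing of recombinant UMIs across the donor–target junction gave counts expressed as log10(CPM+1) after replicate averaging and control-derived scaling.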
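Further: IS621 bridge recombinase in Escherichia coli cells against a fixed T5 target plasmid.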

Sequence | recombinant UMI read abundance (log10)
CAGTCGACATGGACCGGTTTTCCCGGTAATCCGTATTTGGC (site CAGTCGACTCC) | 0.00601
CAGTCGACATGGACCGGTTTTCCCGGTAATCCGTATTTGGC (site CAGTCGACTGC) | 1.37
CAGTCGACATGGACCGGTTTTCCCGGTAATCCGTATTTGGC (site CAGTCGACTTC) | 0.0416
CAGTCGCCATGGACCGGTTTTCCCGGTAATCCGTATTTGGG (site CAGTCGACTCC) | 0.0111
CAGTCGCCATGGACCGGTTTTCCCGGTAATCCGTATTTGGG (site CAGTCGCCTCC) | 0.0028
CAGTCGCCATGGACCGGTTTTCCCGGTAATCCGTATTTGGG (site CAGTCGGCTCC) | 0.0208
CAGTCGCCATGGACCGGTTTTCCCGGTAATCCGTATTTGGG (site CAGTCGTCTCC) | 0
CAGTCGGCATGGACCGGTTTTCCCGGTAATCCGTATTTGCT (site CAGTCGGCTAG) | 0.438
CAGTGGACATGGACCGGTTTTCCCGGTAATCCGTATTTGTG (site CAGTGGACTCA) | 1.57
CAGTTTACATGGACCGGTTTTCCCGGTAATCCGTATTTGCT (site CAGTTTACTAG) | 2.07
CAGTTTACATGGACCGGTTTTCCCGGTAATCCGTATTTGCT (site CCGTTTACTAG) | 0.978
CAGTTTACATGGACCGGTTTTCCCGGTAATCCGTATTTGCT (site CGGTTTACTAG) | 0
CAGTTTACATGGACCGGTTTTCCCGGTAATCCGTATTTGCT (site CTGTTTACTAG) | 0.662
CATACACCATGGACCGGTTTTCCCGGTAATCCGTATTTGTA (site CATACACCTTA) | 0.00749
CATACAGCATGGACCGGTTTTCCCGGTAATCCGTATTTGTG (site CATACAGCTCA) | 1.18
CATAGCGCATGGACCGGTTTTCCCGGTAATCCGTATTTGTC (site CATAGCGCTGA) | 2.99
CATAGTCCATGGACCGGTTTTCCCGGTAATCCGTATTTGAA (site CATAGTCCTTT) | 0.981
CATCAGTCATGGACCGGTTTTCCCGGTAATCCGTATTTGGT (site CATCAGTCTAC) | 2.17
CATCCATCATGGACCGGTTTTCCCGGTAATCCGTATTTGGG (site CATCCATCTCC) | 0.0148
CATCCCTCATGGACCGGTTTTCCCGGTAATCCGTATTTGTA (site CATCCCTCTTA) | 3.33
CATCGTACATGGACCGGTTTTCCCGGTAATCCGTATTTGGT (site AGAGTGGCTTA) | 0.00765
CATCTGTCATGGACCGGTTTTCCCGGTAATCCGTATTTGGG (site CATCTGTCTCC) | 0.559
CATGACTCATGGACCGGTTTTCCCGGTAATCCGTATTTGTC (site CATGACTCTGA) | 1.71
CATGCACCATGGACCGGTTTTCCCGGTAATCCGTATTTGAC (site CATGCACCTGT) | 0
CATGCAGCATGGACCGGTTTTCCCGGTAATCCGTATTTGCT (site CAAGCAGCTAG) | 0.856

Sequence | recombinant UMI read abundance (log10)
CATGCAGCATGGACCGGTTTTCCCGGTAATCCGTATTTGCT (site CACGCAGCTAG) | 1.29
CATGCAGCATGGACCGGTTTTCCCGGTAATCCGTATTTGCT (site CAGGCAGCTAG) | 0.00853
CATGCAGCATGGACCGGTTTTCCCGGTAATCCGTATTTGCT (site CATGCAGCTAG) | 1.97
CATGCATCATGGACCGGTTTTCCCGGTAATCCGTATTTGCT (site CATGCATCTAG) | 1.49
CATGGATCATGGACCGGTTTTCCCGGTAATCCGTATTTGGA (site CATGGATCTTC) | 2.32
CATGTGACATGGACCGGTTTTCCCGGTAATCCGTATTTGAT (site CATGTGACTAT) | 2.03
CATTATCCATGGACCGGTTTTCCCGGTAATCCGTATTTGCT (site AATTATCCTAG) | 0.352
CATTATCCATGGACCGGTTTTCCCGGTAATCCGTATTTGCT (site CATTATCCTAG) | 1.59
CATTATCCATGGACCGGTTTTCCCGGTAATCCGTATTTGCT (site GATTATCCTAG) | 0
CATTATCCATGGACCGGTTTTCCCGGTAATCCGTATTTGCT (site TATTATCCTAG) | 0
CATTCGCCATGGACCGGTTTTCCCGGTAATCCGTATTTGAA (site CATTCGCCTTT) | 0.0116
CATTCGTCATGGACCGGTTTTCCCGGTAATCCGTATTTGGC (site CATTCGTCTGC) | 0.595
CATTGAACATGGACCGGTTTTCCCGGTAATCCGTATTTGCC (site CATTGAACTGG) | 0
CATTGGACATGGACCGGTTTTCCCGGTAATCCGTATTTGAC (site AATTGGACTGT) | 0.565
CATTGGACATGGACCGGTTTTCCCGGTAATCCGTATTTGAC (site CATTGGACTGT) | 1.96
CATTGGACATGGACCGGTTTTCCCGGTAATCCGTATTTGAC (site GATTGGACTGT) | 0
CATTGGACATGGACCGGTTTTCCCGGTAATCCGTATTTGAC (site TATTGGACTGT) | 0
CCAAAACCATGGACCGGTTTTCCCGGTAATCCGTATTTGAG (site CCAAAACCTCT) | 0
CCAACTTCATGGACCGGTTTTCCCGGTAATCCGTATTTGTA (site CCAACTTCTTA) | 0.301
CCAAGCGCATGGACCGGTTTTCCCGGTAATCCGTATTTGTA (site CCAAGCGCTTA) | 1.3
CCAATCACATGGACCGGTTTTCCCGGTAATCCGTATTTGTT (site CCAATCACTAA) | 0.84
CCACGAACATGGACCGGTTTTCCCGGTAATCCGTATTTGTC (site ACACGAACTGA) | 0
CCACGAACATGGACCGGTTTTCCCGGTAATCCGTATTTGTC (site CCACGAACTGA) | 0.774
CCACGAACATGGACCGGTTTTCCCGGTAATCCGTATTTGTC (site GCACGAACTGA) | 0
CCACGAACATGGACCGGTTTTCCCGGTAATCCGTATTTGTC (site TCACGAACTGA) | 0

Sequence | recombinant UMI read abundance (log10)
CCAGCAGCATGGACCGGTTTTCCCGGTAATCCGTATTTGTC (site CCAGCAGCTGA) | 0.4
CCAGCATCATGGACCGGTTTTCCCGGTAATCCGTATTTGCT (site CCAGCATCTAG) | 0.0975
CCAGCATCATGGACCGGTTTTCCCGGTAATCCGTATTTGCT (site CGATCATCTAG) | 0
CCAGCTGCATGGACCGGTTTTCCCGGTAATCCGTATTTGCC (site CCAGCTGCTGG) | 1.26
CCAGGACCATGGACCGGTTTTCCCGGTAATCCGTATTTGGG (site CAAGGACCTCC) | 0.0304
CCAGGACCATGGACCGGTTTTCCCGGTAATCCGTATTTGGG (site CCAGGACCTCC) | 0.00761
CCAGGACCATGGACCGGTTTTCCCGGTAATCCGTATTTGGG (site CGAGGACCTCC) | 0
CCAGGACCATGGACCGGTTTTCCCGGTAATCCGTATTTGGG (site CTAGGACCTCC) | 0.00678
CCAGGTCCATGGACCGGTTTTCCCGGTAATCCGTATTTGCA (site CCAGGTCCTTG) | 0.421
CCAGGTCCATGGACCGGTTTTCCCGGTAATCCGTATTTGCA (site CCCGGTCCTTG) | 0
CCAGGTCCATGGACCGGTTTTCCCGGTAATCCGTATTTGCA (site CCGGGTCCTTG) | 0
CCAGGTCCATGGACCGGTTTTCCCGGTAATCCGTATTTGCA (site CCTGGTCCTTG) | 0
CCAGGTGCATGGACCGGTTTTCCCGGTAATCCGTATTTGAG (site CCAGGTGCTAT) | 0.721
CCAGGTGCATGGACCGGTTTTCCCGGTAATCCGTATTTGAG (site CCAGGTGCTCT) | 0.843
CCAGGTGCATGGACCGGTTTTCCCGGTAATCCGTATTTGAG (site CCAGGTGCTGT) | 0
CCAGGTGCATGGACCGGTTTTCCCGGTAATCCGTATTTGAG (site CCAGGTGCTTT) | 0.424
CCAGGTTCATGGACCGGTTTTCCCGGTAATCCGTATTTGAT (site CCAGGTACTAT) | 0.00235
CCAGGTTCATGGACCGGTTTTCCCGGTAATCCGTATTTGAT (site CCAGGTCCTAT) | 0.00776
CCAGGTTCATGGACCGGTTTTCCCGGTAATCCGTATTTGAT (site CCAGGTGCTAT) | 0
CCAGGTTCATGGACCGGTTTTCCCGGTAATCCGTATTTGAT (site CCAGGTTCTAT) | 0.602
CCAGGTTCATGGACCGGTTTTCCCGGTAATCCGTATTTGTC (site CCAGGTTCTGA) | 2.24
CCAGTCACATGGACCGGTTTTCCCGGTAATCCGTATTTGGG (site CAAGTCACTCC) | 0.0155
CCAGTCACATGGACCGGTTTTCCCGGTAATCCGTATTTGGG (site CCAGTCACTCC) | 0.026
CCAGTCACATGGACCGGTTTTCCCGGTAATCCGTATTTGGG (site CGAGTCACTCC) | 0.00845
CCAGTCACATGGACCGGTTTTCCCGGTAATCCGTATTTGGG (site CTAGTCACTCC) | 0.0251
